This passage reports EC50, inhibition in vivo and inhibition results from US20240316045A1, “CYCLOPROPYLAMIDE COMPOUNDS AGAINST PARASITES IN FISH” (Intervet Inc., priority 2021, published 2024).

Read-outs that look alike come from different tables or passages of the source.

Test [1] has as its system Mobile stages of sea lice (pre-adults, adults of Lepeophtheirus salmonis). Nature of the test: Adult sea lice contact assay. The following applies: read-out: EC50 (sea lice inhibition, dead+damaged). The method, then:
Mobile stages of sea lice (i.e., pre-adults, adults of Lepeophtheirus salmonis) were exposed to seawater spiked with declining concentrations of a test compound (dissolved in a PEG sea-water mixture). Sea lice inhibition (% of dead+damaged sea lice) was assessed after approximately 1 and 24 hours of continuous exposure in comparison to a negative (solvent) control group.

The next test relates to Lepeophtheirus salmonis. Nature of the test: Salmon in vivo efficacy trial against sea lice, gavage administration. The settings on record: in Salmo salar. The method, then:
Salmon (Salmo salar) were treated once orally by gavage at a dose of 5 mg/kg bodyweight per fish (Day 0). As formulation DMSO 5%/fish oil 95% was used. Salmon of the negative control group received only the excipients of the formulation.
The fish were infested with Lepeophtheirus salmonis copepodids twice before treatment (i.e., around day −28 and day −3) and once after treatment (i.e., day 17). […]
Efficacy is expressed as a % reduction of sea lice in treated groups versus a control group, using the Abbott's formula.

The subject of test [2] is Copepodids (juvenile sea lice stage of Lepeophtheirus salmonis). The test can be described thus: Juvenile sea lice contact assay. The following applies: read-out: Sea lice inhibition (% of dead+damaged copepodids). The method, then:
Copepodids (juvenile sea lice stage of Lepeophtheirus salmonis) were exposed to seawater spiked with declining concentrations of a test compound (dissolved in a DMSO sea-water mixture). Sea lice inhibition (% of dead+damaged copepodids) was assessed after approximately 24 hours of continuous exposure. The vitality of used parasites was confirmed in a negative (solvent) control group.

The mark [3] stands for this setting: pre-adult/adult L. salmonis, assessed after approx. 1 and 24 hours, time of EC50 not stated.
[4] abbreviates: 168 h, read-out: therapeutic efficacy against (pre-)adult sea lice (% reduction vs control, Abbott), single oral gavage 5 mg/kg, count at day 7, day -28 infestation.
Setting [5] is: 672 h, read-out: therapeutic efficacy against juvenile sea lice (% reduction vs control, Abbott), single oral gavage 5 mg/kg, count around day 28, day -3 infestation.
[6] abbreviates: test concentration 10 nM, approx. 24 hours continuous exposure.
Where [7] appears, read: test concentration 100 nM, approx. 24 hours continuous exposure.

Regarding `O=C(Nc1ccccc1)c1cc(NC(=O)[C@H]2[C@H](c3cc(Cl)cc(Cl)c3)C2(Cl)Cl)ccc1Cl` [Compound 1099], the EC50 in test [1] (setting [3]) was in the range of 1 to 10 nM. In addition, the values for the inhibition in vivo at 5 mg/kg in the test with Lepeophtheirus salmonis (setting [4]) and in the test with Lepeophtheirus salmonis (setting [5]) were 80% and 100%, respectively. In addition, the inhibition at 0.01 µM in test [2] (setting [6]) was 100%.

With `O=C(Nc1ncc(F)cc1F)c1cc(NC(=O)[C@H]2[C@H](c3cc(F)c(F)c(F)c3)C2(Cl)Cl)ccc1F` [Compound 1393], in test [1] (setting [3]), the EC50 was at most 1 nM. Also, the inhibition in vivo at 5 mg/kg with Lepeophtheirus salmonis (setting [4]) stood at 100%; with Lepeophtheirus salmonis (setting [5]) it was 80%. For the same molecule, in test [2] (setting [6]), the inhibition at 0.01 µM turned out to be 100%.

For the molecule `O=C(Nc1ncc(F)cc1F)c1cc(NC(=O)[C@H]2[C@H](c3cc(Cl)cc(Cl)c3)C2(Cl)Cl)ccc1F` [Compound 1376], the EC50 in test [1] (setting [3]) was at most 1 nM. For the same molecule, the inhibition in vivo at 5 mg/kg in the test on Lepeophtheirus salmonis (setting [4]) and in the test on Lepeophtheirus salmonis (setting [5]) was 100% each time. Besides, in test [2] (test concentration 0.01 nM, approx. 24 hours continuous exposure), the inhibition at 10 pM was found to be 100%. The inhibition at 0.0001 µM in test [2] (test concentration 0.1 nM, approx. 24 hours continuous exposure) is 100%.

With `O=C(Nc1ncc(F)cc1F)c1cc(NC(=O)C2C(c3cc(C(F)(F)F)cc(C(F)(F)F)c3)C2(Cl)Cl)ccc1Cl` (stereo not shown) [Compound 1385], the EC50 in test [1] (setting [3]) fell in the range of 1 to 10 nM. In test [2] (setting [6]), the inhibition at 0.01 µM turned out to be 100%.

In the case of `Cc1c(F)cc(NC(=O)[C@H]2[C@H](c3cc(Cl)cc(Cl)c3)C2(Cl)Cl)cc1C(=O)Nc1ncc(F)cc1F` [Compound 1368], the EC50 in test [1] (setting [3]) lay in the range of 1 to 10 nM. For the same molecule, the inhibition in vivo at 5 mg/kg in the test with Lepeophtheirus salmonis (setting [4]) was 80%; in the test on Lepeophtheirus salmonis (setting [5]), 100%. The inhibition at 0.01 µM in test [2] (setting [6]) was 100%.

On to `O=C(Nc1ncc(F)cc1F)c1cc(NC(=O)[C@H]2[C@H](c3cc(F)c(F)c(F)c3)C2(Cl)Cl)ccc1Cl` [Compound 1392], for which the EC50 in test [1] was at most 1 nM. In addition, the inhibition in vivo at 5 mg/kg with Lepeophtheirus salmonis (po, 168 h, read-out: therapeutic efficacy against (pre-)adult sea lice (% reduction vs control, Abbott)) stood at 100%; with Lepeophtheirus salmonis (po, 672 h, read-out: therapeutic efficacy against juvenile sea lice (% reduction vs control, Abbott)), 80%. In addition, the inhibition at 0.01 µM in test [2] (24 h) was determined as 100%.

With `O=C(Nc1ncc(F)cc1F)c1cc(NC(=O)[C@H]2[C@H](c3cc(Cl)cc(Cl)c3)C2(Cl)Cl)cc(F)c1Cl` [Compound 1378], in test [1] (setting [3]), the concentration for a half-maximal effect (EC50) fell in the range of 1 to 25 nM. For the same molecule, the inhibition in vivo at 5 mg/kg in the test on Lepeophtheirus salmonis (setting [4]) and in the test with Lepeophtheirus salmonis (setting [5]) was 100% each time. Further, the inhibition at 0.01 µM in test [2] (setting [6]) is 100%.

On to `O=C(Nc1ncc(F)cc1F)c1c(F)ccc(NC(=O)[C@H]2[C@H](c3cc(Cl)cc(Cl)c3)C2(Cl)Cl)c1F` [Compound 1394], for which the half-maximal effective concentration (EC50) in test [1] (setting [3]) was in the range of 1 to 10 nM. Also, the inhibition in vivo at 5 mg/kg in the test with Lepeophtheirus salmonis (setting [4]) and with Lepeophtheirus salmonis (setting [5]) was 100% in each case. Moreover, in test [2] (setting [7]), the inhibition at 0.1 µM amounted to 100%.

As for `O=C(Nc1ccc(F)cc1)c1cc(NC(=O)C2C(c3cc(Cl)cc(Cl)c3)C2(Cl)Cl)ccc1F` (stereo not shown) [Compound 1003], the EC50 in test [1] lay in the range of 1 to 25 nM. Besides, in test [2] (24 h), the inhibition at 0.1 µM was at least 80%.

As for `O=C(Nc1ncc(F)cc1F)c1cc(NC(=O)C2C(c3cc(Cl)cc(Cl)c3)C2(Cl)Cl)cc(F)c1F` (stereo not shown) [Compound 1391], the concentration for a half-maximal effect (EC50) in test [1] (setting [3]) was in the range of 1 to 10 nM. Further, the inhibition at 0.01 µM in test [2] (setting [6]) turned out to be 80%.

Take `O=C(Nc1ncc(F)cc1F)c1cc(NC(=O)C2C(c3cc(C(F)(F)F)cc(C(F)(F)F)c3)C2(Cl)Cl)cc(F)c1F` (stereo not shown) [Compound 1388]: in test [1] (setting [3]), the concentration for a half-maximal effect (EC50) lay in the range of 1 to 10 nM. Besides, the inhibition at 0.1 µM in test [2] (setting [7]) was found to be 100%.

`O=C(Nc1ccc(F)cc1F)c1cc(NC(=O)C2C(c3cc(C(F)(F)F)cc(C(F)(F)F)c3)C2(Cl)Cl)ccc1F` (stereo not shown) [Compound 1387]: the EC50 in test [1] (setting [3]) was in the range of 1 to 10 nM. Also, the inhibition at 0.1 µM in test [2] (setting [7]) was 100%.

With `O=C(Nc1c(F)cccc1F)c1cc(NC(=O)[C@H]2[C@H](c3cc(Cl)cc(Cl)c3)C2(Cl)Cl)ccc1Cl` [Compound 1370], the concentration for a half-maximal effect (EC50) in test [1] (setting [3]) was 1 to 10 nM. Further, the inhibition in vivo at 5 mg/kg with Lepeophtheirus salmonis (setting [4]) and in the test with Lepeophtheirus salmonis (setting [5]) was 100% in each case. In addition, the inhibition at 0.01 µM in test [2] (setting [6]) came to 100%.

In the case of `O=C(Nc1cncnc1)c1cc(NC(=O)[C@H]2[C@H](c3cc(Cl)cc(Cl)c3)C2(Cl)Cl)ccc1Cl` [Compound 1371], the 50% effective concentration (EC50) in test [1] (setting [3]) is 1 to 10 nM. The inhibition in vivo at 5 mg/kg with Lepeophtheirus salmonis (setting [4]) and with Lepeophtheirus salmonis (setting [5]) was 100% throughout. In test [2] (setting [6]), the inhibition at 0.01 µM turned out to be 100%.

`O=C(Nc1ncc(F)cc1F)c1cccc(NC(=O)[C@H]2[C@H](c3cc(Cl)cc(Cl)c3)C2(Cl)Cl)c1F` [Compound 1379]: the EC50 in test [1] (setting [3]) fell in the range of 1 to 25 nM. Also, the inhibition at 0.1 µM in test [2] (setting [7]) worked out at 100%.

With `Cc1ccc(NC(=O)[C@H]2[C@H](c3cc(Cl)cc(Cl)c3)C2(Cl)Cl)cc1C(=O)Nc1ccc(F)cc1` [Compound 1101], the EC50 in test [1] (setting [3]) is 1 to 10 nM. Moreover, the inhibition at 0.1 µM in test [2] (setting [7]) was 100%.

On to `O=C(Nc1ccncn1)c1cc(NC(=O)[C@H]2[C@H](c3cc(Cl)cc(Cl)c3)C2(Cl)Cl)ccc1Cl` [Compound 1039], for which the EC50 in test [1] (setting [3]) lay in the range of 1 to 25 nM. For the same molecule, the inhibition in vivo at 5 mg/kg in the test on Lepeophtheirus salmonis (setting [4]) and in the test with Lepeophtheirus salmonis (setting [5]) was 80% in each case. Besides, in test [2] (setting [7]), the inhibition at 0.1 µM worked out at 100%.

With `O=C(Nc1ccc(F)cc1)c1cc(NC(=O)[C@H]2[C@H](c3cc(Cl)cc(Cl)c3)C2(Cl)Cl)ccc1F` [Compound 1090], the concentration giving a half-maximal response (EC50) in test [1] lay within 1 to 10 nM. For the same molecule, the inhibition at 0.001 µM in test [2] (24 h) was determined as 100%.

`O=C(Nc1ncc(F)cc1F)c1cc(NC(=O)C2C(c3cc(Cl)c(F)c(Cl)c3)C2(Cl)Cl)ccc1Cl` (stereo not shown) [Compound 1383]: the half-maximal effective concentration (EC50) in test [1] (setting [3]) is 1 to 10 nM. The inhibition at 0.01 µM in test [2] (setting [6]) amounted to 100%.

On to `Cc1ccccc1NC(=O)c1cc(NC(=O)[C@H]2[C@H](c3cc(Cl)cc(Cl)c3)C2(Cl)Cl)ccc1Cl` [Compound 1100], for which the half-maximal effective concentration (EC50) in test [1] (setting [3]) is 1 to 10 nM. The inhibition in vivo at 5 mg/kg in the test with Lepeophtheirus salmonis (setting [4]) and with Lepeophtheirus salmonis (setting [5]) was 100% in each case. In addition, in test [2] (setting [6]), the inhibition at 0.01 µM was determined as 100%.

Turning to `O=C(Nc1ccc(F)cc1F)c1cc(NC(=O)[C@H]2[C@H](c3ccc(F)c(Cl)c3)C2(Cl)Cl)ccc1Cl` [Compound 1087], the EC50 in test [1] lay within 1 to 25 nM. Moreover, the inhibition at 0.001 µM in test [2] (24 h) is 100%.

Turning to `O=C(Nc1c(F)cccc1F)c1cc(NC(=O)C2C(c3cc(Cl)cc(Cl)c3)C2(Cl)Cl)ccc1Cl` (stereo not shown) [Compound 1007], the EC50 in test [1] (setting [3]) fell in the range of 1 to 25 nM. The inhibition at 0.01 µM in test [2] (setting [6]) came to 80%.
